Measurements as given in the NIST ThermoML archive (doi:10.1016/j.jct.2007.11.002).
± gives the expanded uncertainty stated by the source.

Experiment: xn = mol fraction of the nth substance listed
Conditions: 101 kPa, Liquid; for viscosity: Capillary tube (Ostwald / Ubbelohde) method

CN1CCOCC1 [N-methylmorpholine] + c1ccccc1
Conditions | mass density, 313.15 K [kg/m3] | mass density, 323.15 K [kg/m3] | viscosity, 313.15 K [mPa·s] | viscosity, 323.15 K [mPa·s]
x2 = 0.0554 | 898.27 ± 1 | 879.87 ± 1 | 0.811 ± 0.011 | 0.789 ± 0.011
x2 = 0.1167 | 896.38 ± 0.95 | 878.41 ± 0.97 | 0.781 ± 0.01 | 0.761 ± 0.01
x2 = 0.1798 | 894.47 ± 0.88 | 876.92 ± 0.91 | 0.746 ± 0.01 | 0.731 ± 0.01
x2 = 0.2477 | 892.51 ± 0.82 | 875.44 ± 0.85 | 0.713 ± 0.009 | 0.695 ± 0.009
x2 = 0.2855 | 891.26 ± 0.79 | 874.46 ± 0.82 | 0.695 ± 0.009 | 0.676 ± 0.009
x2 = 0.3422 | 889.48 ± 0.75 | 873.1 ± 0.78 | 0.668 ± 0.009 | 0.647 ± 0.008
x2 = 0.3762 | 888.33 ± 0.72 | 872.2 ± 0.75 | 0.654 ± 0.008 | 0.632 ± 0.008
x2 = 0.4244 | 886.67 ± 0.69 | 870.91 ± 0.72 | 0.636 ± 0.008 | 0.613 ± 0.008
x2 = 0.479 | 884.72 ± 0.66 | 869.39 ± 0.69 | 0.617 ± 0.008 | 0.592 ± 0.008
x2 = 0.5466 | 881.97 ± 0.62 | 867.18 ± 0.65 | 0.598 ± 0.008 | 0.568 ± 0.008
x2 = 0.5911 | 880.1 ± 0.6 | 865.69 ± 0.63 | 0.587 ± 0.008 | 0.556 ± 0.007
x2 = 0.6201 | 878.76 ± 0.59 | 864.58 ± 0.62 | 0.579 ± 0.007 | 0.548 ± 0.007
x2 = 0.6822 | 875.84 ± 0.57 | 862.22 ± 0.6 | 0.565 ± 0.007 | 0.531 ± 0.007
x2 = 0.7094 | 874.61 ± 0.56 | 861.22 ± 0.59 | 0.561 ± 0.007 | 0.525 ± 0.007
x2 = 0.7655 | 871.56 ± 0.55 | 858.69 ± 0.57 | 0.551 ± 0.007 | 0.509 ± 0.007
x2 = 0.7901 | 870.14 ± 0.54 | 857.49 ± 0.57 | 0.548 ± 0.007 | 0.503 ± 0.007
x2 = 0.8439 | 867.09 ± 0.53 | 854.96 ± 0.56 | 0.535 ± 0.007 | 0.486 ± 0.007
x2 = 0.8933 | 864.21 ± 0.53 | 852.55 ± 0.55 | 0.521 ± 0.007 | 0.468 ± 0.007
x2 = 0.9278 | 862.18 ± 0.53 | 850.86 ± 0.55 | 0.512 ± 0.007 | 0.458 ± 0.007
x2 = 0.9641 | 859.95 ± 0.53 | 848.96 ± 0.55 | 0.503 ± 0.007 | 0.448 ± 0.007
